Measurements published in the supplement of paper PMC4862054.

Key:
SK-BR-3 [1] = assay: normalised viability (% of control), CellTiter-Blue; higher = more viable cells (about 100 = DMSO control); settings: incubation time: 72 h
Procedure, shortened: (§1)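 Compound dissolved in 5 µl medium was pre-loaded into 384-well plates, and breast cancer cell lines in 20 µl suspension were seeded on top and incubated 72 h. After adding 2.5 µl CellTiter-Blue reagent for 2 h at 37 °C, fluorescence was read at 560/590 nm. Plates were normalised to vehicle (100) and a positive kill control (0), with Z'-factor quality control. Each value is normalised viability at a single listed concentration from the series.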

MDA-MB-436 [2] = assay: as above; settings: incubation time: 72 h
Procedure, shortened: as §1

HCC1937 [3] = assay: as above; settings: incubation time: 72 h
Procedure, shortened: as §1

MDA-MB-453 = assay: as above; settings: incubation time: 72 h
Procedure, shortened: as §1

HCC1599 = assay: as above; settings: incubation time: 72 h
Procedure, shortened: as §1

HCC1143 = assay: as above; settings: incubation time: 72 h
Procedure, shortened: as §1

CAL-148 = assay: as above; settings: incubation time: 72 h
Procedure, shortened: as §1

Hs578T = assay: as above; settings: incubation time: 72 h
Procedure, shortened: as §1

CAL-51 = assay: as above; settings: incubation time: 72 h
Procedure, shortened: as §1

MDA-MB-231 = assay: as above; settings: incubation time: 72 h
Procedure, shortened: as §1

DU-4475 = assay: as above; settings: incubation time: 72 h
Procedure, shortened: as §1

BT-549 [4] = assay: as above; settings: incubation time: 72 h
Procedure, shortened: as §1

MFM-223 = assay: as above; settings: incubation time: 72 h
Procedure, shortened: as §1

MDA-MB-468 = assay: as above; settings: incubation time: 72 h
Procedure, shortened: as §1

HDQ-P1 = assay: as above; settings: incubation time: 72 h
Procedure, shortened: as §1

BT-474 = assay: as above; settings: incubation time: 72 h
Procedure, shortened: as §1

CAL-120 [5] = assay: as above; settings: incubation time: 72 h
Procedure, shortened: as §1

CAL-85-1 = assay: as above; settings: incubation time: 72 h
Procedure, shortened: as §1

SK-BR-3 [6] = settings: 72 h
Procedure, shortened: (§2)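 Viability of breast cancer cell lines was measured with CellTiter-Blue after 72 h of incubation on compound-loaded 384-well plates. Cells were seeded in 20 µl onto compound dissolved in 5 µl medium, and 2.5 µl reagent was added for 2 h at 37 °C before reading at 560/590 nm. EC50 was fitted from percent-inhibition dose-response data censored at the highest concentration, normalised per plate to vehicle and a positive kill control, with zero drug sensitivity score rows dropped.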

MDA-MB-436 [7] = settings: 72 h
Procedure, shortened: as §2

HCC1937 [8] = settings: 72 h
Procedure, shortened: as §2

BT-549 [9] = settings: 72 h
Procedure, shortened: as §2

CAL-120 [10] = settings: 72 h
Procedure, shortened: as §2

CN1CCC(COc2cnc(-c3cccc(Cn4nc(-c5cccc(C#N)c5)ccc4=O)c3)nc2)CC1
normalised viability [%]
Settings | 3 nM | 10 nM | 30 nM | 100 nM | 1000 nM | 10000 nM
BT-474 | – | 93.6 | – | – | 105 | 9.72
BT-549 [4] | – | 98.9 | – | – | 90 | 5.83
CAL-51 | 97.3 | – | 98 | 87.6 | – | –
CAL-85-1 | 110 | – | 96.5 | 121 | – | –
CAL-120 [5] | – | 97.3 | – | – | 116 | 11.8
CAL-148 | 85.8 | – | 83.2 | 94.2 | – | –
DU-4475 | 94.1 | – | 89.7 | 99.2 | – | –
HCC1143 | – | 116 | – | – | 103 | 114
HCC1599 | – | 108 | – | – | 120 | 71.9
HCC1937 [3] | – | 79.1 | – | – | 96.1 | 10.6
HDQ-P1 | 82 | – | 91.8 | 70.5 | – | –
Hs578T | – | 105 | – | – | 91 | 59.8
MDA-MB-231 | – | 79 | – | – | 81.3 | 1.93
MDA-MB-436 [2] | – | 82.3 | – | – | 92.3 | 11.6
MDA-MB-453 | 84.5 | – | 91.2 | 93.8 | – | –
MDA-MB-468 | – | 92.8 | – | – | 92.9 | 5.99
MFM-223 | – | 108 | – | – | 119 | 22.5
SK-BR-3 [1] | – | 93.1 | – | – | 89.2 | 2.76

Settings | EC50, CellTiter-Blue viability [nM]
BT-549 [9] | 2770
CAL-120 [10] | 4950
HCC1937 [8] | 3980
MDA-MB-436 [7] | 3530
SK-BR-3 [6] | 2470

CN(C)C/C=C/C(=O)Nc1cc2c(Nc3ccc(F)c(Cl)c3)ncnc2cc1O[C@H]1CCOC1 [Afatinib]
normalised viability [%]
Settings | 3 nM | 10 nM | 30 nM | 100 nM | 1000 nM | 10000 nM
BT-474 | – | 72.1 | – | – | 33.8 | 16
BT-549 [4] | – | 87.1 | – | – | 92.9 | 11.7
CAL-51 | 114 | – | 99.8 | 97.7 | – | –
CAL-85-1 | 83.2 | – | 57.4 | 54.2 | – | –
CAL-120 [5] | – | 71.8 | – | – | 66.1 | 13.2
CAL-148 | 83.2 | – | 72.9 | 72.5 | – | –
DU-4475 | 95.1 | – | 83.2 | 85.8 | – | –
HCC1143 | – | 66 | – | – | 70 | 42.9
HCC1599 | – | 97.4 | – | – | 77.6 | 79.5
HCC1937 [3] | – | 83.2 | – | – | 67.5 | 13.9
HDQ-P1 | 92.5 | – | 76.9 | 77.1 | – | –
Hs578T | – | 98 | – | – | 95.7 | 14.4
MDA-MB-231 | – | 89.1 | – | – | 74.2 | 7.48
MDA-MB-436 [2] | – | 90.8 | – | – | 103 | 17.3
MDA-MB-453 | 104 | – | 67 | 46.6 | – | –
MDA-MB-468 | – | 99.1 | – | – | 56.9 | 11.5
MFM-223 | – | 88.7 | – | – | 83.4 | 25.1
SK-BR-3 [1] | – | 52.1 | – | – | 19.3 | 12.3

Settings | EC50, CellTiter-Blue viability [nM]
BT-549 [9] | 2700
CAL-120 [10] | 836
HCC1937 [8] | 1910
MDA-MB-436 [7] | 5410
SK-BR-3 [6] | 7.53

S=c1[nH]cnc2nc[nH]c12 [Mercaptopurine]
normalised viability [%]
Settings | 3 nM | 10 nM | 30 nM | 100 nM | 1000 nM | 10000 nM
BT-474 | – | 116 | – | – | 108 | 112
BT-549 [4] | – | 115 | – | – | 105 | 95.6
CAL-51 | 105 | – | 101 | 106 | – | –
CAL-85-1 | 101 | – | 91.8 | 103 | – | –
CAL-120 [5] | – | 88.1 | – | – | 83.7 | 47.3
CAL-148 | 99.5 | – | 98.7 | 92.8 | – | –
DU-4475 | 103 | – | 87.6 | 87.8 | – | –
HCC1143 | – | 85.8 | – | – | 95.7 | 88.5
HCC1599 | – | 103 | – | – | 96.3 | 106
HCC1937 [3] | – | 87.5 | – | – | 86.9 | 48.1
HDQ-P1 | 123 | – | 110 | 100 | – | –
Hs578T | – | 118 | – | – | 123 | 86.7
MDA-MB-231 | – | 101 | – | – | 95.9 | 88.7
MDA-MB-436 [2] | – | 89.8 | – | – | 74.1 | 83
MDA-MB-453 | 116 | – | 98.1 | 110 | – | –
MDA-MB-468 | – | 108 | – | – | 64.9 | 69
MFM-223 | – | 101 | – | – | 94 | 103
SK-BR-3 [1] | – | 107 | – | – | 95.6 | 63.5

Settings | EC50, CellTiter-Blue viability [nM]
CAL-120 [10] | 9910
HCC1937 [8] | 1550

N#CC[C@H](C1CCCC1)n1cc(-c2ncnc3[nH]ccc23)cn1 [Ruxolitinib]
normalised viability [%]
Settings | 3 nM | 10 nM | 30 nM | 100 nM | 1000 nM | 10000 nM
BT-474 | – | 108 | – | – | 103 | 119
BT-549 [4] | – | 86.3 | – | – | 90.9 | 73.4
CAL-51 | 84.6 | – | 97 | 97.4 | – | –
CAL-85-1 | 114 | – | 90.4 | 110 | – | –
CAL-120 [5] | – | 102 | – | – | 99 | 94.5
CAL-148 | 92 | – | 82.4 | 94.1 | – | –
DU-4475 | 103 | – | 106 | 121 | – | –
HCC1143 | – | 107 | – | – | 107 | 98.2
HCC1599 | – | 114 | – | – | 102 | 91.1
HCC1937 [3] | – | 114 | – | – | 94.1 | 74
HDQ-P1 | 84 | – | 83.6 | 104 | – | –
Hs578T | – | 108 | – | – | 104 | 93.5
MDA-MB-231 | – | 72.7 | – | – | 101 | 110
MDA-MB-436 [2] | – | 93.2 | – | – | 112 | 102
MDA-MB-453 | 86.8 | – | 89.2 | 93.9 | – | –
MDA-MB-468 | – | 90.5 | – | – | 104 | 100
MFM-223 | – | 101 | – | – | 98.6 | 75.3
SK-BR-3 [1] | – | 95.4 | – | – | 87.3 | 103

Settings | EC50, CellTiter-Blue viability [nM]
HCC1937 [8] | 1650
